Measurements: patent publication US7531669B2, “Methods for treating neural disorders and conditions, and compounds useful therefor” (The Salk Institute for Biological Studies, priority 2003, dated 2009)

Columns and labels:
[1] = Plasma concentration after a single oral dose in mice; assay type: in vivo, BALB/c mice; settings: for Plasma 11-001 concentration: 400 mg/kg single oral dose
Method: The pharmacokinetic properties of compound 11-001 (see FIG. 14) after a single oral dose were studied in 10-week old female BALB/c mice. Compound 11-001 was emulsified in 2.5% carboxymethyl cellulose at a concentration of 20 mg/ml and administered by gavage at a dosage of 400 mg/kg body weight (administered volume was 20 ml/kg body weight). The mice were then sacrificed at various intervals after administration (0, 1 hr, 2 hr, 4 hr, and 6 hr). Plasma was obtained from blood (mixed with K3EDTA to prevent coagulation) by centrifugation at 4,300 g for 10 min, extracted twice with ethyl acetate/propanol (9:1, v/v). The extracts were centrifuged at 5,000 g for 10 min to form aqueous/organic layers. The organic layer containing compound 11-001 was centrifuged at 20,000 g for 10 min to sediment particles. The extraction recovery from plasma was approximately 90%. Thirty μl thereof were analyzed by HPLC equipped with a C18 reversed phase column and compound 11-001 was detected at 330 nm. The elution solvent system was 50% acetonitrile, 50% water and 1 g/L trifluoroacetic acid with a flow rate of 1 ml/min.

[2] = Brain content after a single oral dose in mice; assay type: in vivo, BALB/c mice; settings: for Brain 11-001 content: 400 mg/kg single oral dose
Method: To study the distribution of compound 11-001 in brain at various time intervals (0, 1 hr, 2 hr, 4 hr, and 6 hr) after gavage (400 mg/kg), the mice were anesthetized with cloral hydrate and perfused through the heart with phosphate buffered saline (PBS) to remove blood in the brain. The mice were then decapitated, the brains removed, and quickly frozen and stored at −80° C. before further analysis. To measure the level of compound 11-001 in the brain, weighed brain pieces were homogenized by sonication in 3 volumes of PBS. The homogenates were then extracted and measured by HPLC as described above.

HT22 cells = assay: HT22 cell survival after glutamate in the CREB phosphorylation experiment; assay type: cell-based; settings: 1 μM compound; all cells died in its absence
Method: CREB phosphorylation in response to oxidative stress was evaluated in the presence of invention compounds. Glutamate was added to HT22 cells in the presence or absence of compound 11-001 (at 1 μM). […] Furthermore, all of the HT22 cells died in the absence of compound 11-001, and over 90% lived in the presence of compound 11-001.

JNK-3 = JNK-3 (Homo sapiens, UniProt P53779); assay: Protein kinase panel screen: JNK-3; assay type: biochemical
Chain of JNK-3 (P53779 whole entry, species assumed): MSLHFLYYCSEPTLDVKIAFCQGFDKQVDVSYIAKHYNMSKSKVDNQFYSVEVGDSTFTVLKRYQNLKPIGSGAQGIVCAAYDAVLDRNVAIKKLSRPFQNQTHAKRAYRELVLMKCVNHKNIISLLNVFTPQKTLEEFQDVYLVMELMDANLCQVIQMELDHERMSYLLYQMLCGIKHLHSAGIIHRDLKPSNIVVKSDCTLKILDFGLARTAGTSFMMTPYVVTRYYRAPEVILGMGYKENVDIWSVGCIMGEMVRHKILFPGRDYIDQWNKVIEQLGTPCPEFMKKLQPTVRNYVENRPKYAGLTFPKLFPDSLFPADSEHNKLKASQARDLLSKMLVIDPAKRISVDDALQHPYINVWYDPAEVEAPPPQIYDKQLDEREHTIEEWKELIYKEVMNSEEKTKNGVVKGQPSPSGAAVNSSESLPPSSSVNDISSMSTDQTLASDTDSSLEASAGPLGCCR
Text: (§1) A panel of 14 protein kinases was screened against compound 11-001. […] The phosphorylation of the other tested kinases was not altered.

JNK-1 = JNK-1 (Homo sapiens, UniProt P45983); assay: Protein kinase panel screen: JNK-1; assay type: biochemical
Chain of JNK-1 (P45983 whole entry, species assumed): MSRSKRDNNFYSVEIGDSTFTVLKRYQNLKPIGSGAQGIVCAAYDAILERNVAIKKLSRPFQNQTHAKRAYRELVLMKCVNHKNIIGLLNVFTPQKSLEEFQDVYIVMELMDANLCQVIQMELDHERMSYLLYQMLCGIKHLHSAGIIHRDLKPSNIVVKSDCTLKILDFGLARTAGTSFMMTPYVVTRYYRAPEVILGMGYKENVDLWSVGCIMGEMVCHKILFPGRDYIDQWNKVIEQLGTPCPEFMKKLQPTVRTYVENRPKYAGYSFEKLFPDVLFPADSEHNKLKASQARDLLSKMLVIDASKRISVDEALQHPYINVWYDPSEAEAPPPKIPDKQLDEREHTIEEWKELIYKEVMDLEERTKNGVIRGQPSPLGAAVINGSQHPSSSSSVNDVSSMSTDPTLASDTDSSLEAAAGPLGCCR
Text: as §1

JNK-2 = JNK-2 (Homo sapiens, UniProt P45984); assay: Protein kinase panel screen: JNK-2; assay type: biochemical
Chain of JNK-2 (P45984 whole entry, species assumed): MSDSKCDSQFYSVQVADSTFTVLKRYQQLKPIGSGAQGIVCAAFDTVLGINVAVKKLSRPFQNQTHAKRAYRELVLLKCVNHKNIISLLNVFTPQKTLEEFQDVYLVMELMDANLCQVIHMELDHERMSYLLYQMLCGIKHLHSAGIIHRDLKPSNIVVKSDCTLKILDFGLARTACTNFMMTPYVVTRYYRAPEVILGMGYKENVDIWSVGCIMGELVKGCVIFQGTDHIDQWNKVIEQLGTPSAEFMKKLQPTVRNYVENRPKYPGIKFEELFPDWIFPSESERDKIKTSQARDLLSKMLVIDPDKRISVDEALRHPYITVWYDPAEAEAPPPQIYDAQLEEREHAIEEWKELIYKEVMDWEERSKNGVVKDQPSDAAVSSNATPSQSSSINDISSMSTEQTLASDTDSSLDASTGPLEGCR
Text: as §1

p38 = p38 phosphorylation caused by glutamate in cells; assay type: cell-based; settings: HT22 cells and primary cortical neurons
Text: as §1

JNK = JNK phosphorylation caused by glutamate in cells; assay type: cell-based; settings: HT22 cells and primary cortical neurons
Text: as §1

[3] = system: HT22 cells and primary cortical neurons; assay: Cell death caused by glutamate in HT22 cells and primary cortical neurons; assay type: cell-based
[4] = system: rat primary cortical neurons; assay: Neuroprotective activity, rat primary cortical neurons cultured in serum-containing or serum-free medium; assay type: cell-based
Method: Primary cortical neurons are prepared from 18-day-old embryos of Sprague-Dawley rats as described (Liu and Schubert J. Neurochem. 69, 2285-2293 (1997) and J. Neurochem. 71, 2322-2329 (1998)). Briefly, the cerebral cortex is dissected out under an anatomical microscope and is freed of meninges and blood vessels. The cortex is cut into small pieces and is then dissociated by trypsin digestion and passed through a pipette tip. Dissociated neurons are suspended in various media and plated on polylysine-coated 35 mm tissue culture dishes (1×10^6 cells/dish). Several different culture conditions were used. Invention compounds were added to cell culture dishes. Cell survival was measure 2-7 days after compound administration.
The following serum-containing medium was used: minimal essential medium (Sigma) containing 30 mM glucose, 2 mM glutamine, 1 mM pyruvate, penicillin (100 U/ml), streptomycin (100 μg/ml), and 10% fetal calf serum. At a plating density of 1×10^6 cells/dish, most neurons die after one week of culture in this medium. If plated at a density of 2×10^6 cells/dish, then most neurons survive. Glia proliferate in this medium regardless of the initial cell density. Therefore the cell density-dependent neuronal survival in this system is most likely dependent on the neurotrophic factors secreted by the neurons, not by the glia. The results are the same when glial proliferation is inhibited by cytosine arabinoside.
A serum-free medium containing DMEM/F-12 plus N2 supplements (Invitrogen). When plated at a density of 1×10^6 cells/dish, almost all neurons die within three days. The cell death mechanisms in this culture medium are most likely to be oxidative stress and trophic factor deficiency.
A number of compounds according to the present invention were synthesized (using standard synthetic techniques) to explore the structure-activity relationships. The structures of exemplary invention compounds tested are provided herein. The structure-activity relationships of various compounds according to the present invention with rat primary cortical neurons cultured in serum-containing or serum-free medium are set forth in Table 1.

COc1cc(/C=C/c2cc(/C=C/c3ccc(O)c(OC)c3)n(-c3ccccc3)n2)ccc1O [Compound 11-001]
Plasma 11-001 concentration ([1]; 0 hr after gavage): 0 µg/mL | Time of maximum plasma concentration ([1]; 400 mg/kg by gavage): around 2 hr | Plasma 11-001 concentration ([1]; 1 hr after gavage): 1.84 µg/mL | Plasma 11-001 concentration ([1]; 2 hr after gavage): 2.30 µg/mL | Plasma 11-001 concentration ([1]; 4 hr after gavage): 1.25 µg/mL | Plasma 11-001 concentration ([1]; 6 hr after gavage): 0.67 µg/mL | Brain 11-001 content ([2]; 0 hr after gavage): 0 μg/g brain | Time of maximum brain concentration ([2]; 400 mg/kg by gavage): 1 h | Oral absorption and passage of the blood-brain barrier ([2]; 400 mg/kg by gavage, mice): can be orally absorbed and traverse the blood-brain barrier | Brain 11-001 content ([2]; 1 hr after gavage): 2.62 μg/g brain | Brain 11-001 content ([2]; 2 hr after gavage): 1.28 μg/g brain | Brain 11-001 content ([2]; 4 hr after gavage): 0.89 μg/g brain | Brain 11-001 content ([2]; 6 hr after gavage): 0.95 μg/g brain | HT22 cells that lived after glutamate (HT22 cells): over 90% | Inhibition of kinase in panel of 14 protein kinases (JNK-3): partially inhibited | Inhibition of kinase in panel of 14 protein kinases (JNK-1): None of the other enzymes that were assayed, including JNK-1 or JNK-2, were affected | Inhibition of kinase in panel of 14 protein kinases (JNK-2): None of the other enzymes that were assayed, including JNK-1 or JNK-2, were affected | Block of p38 phosphorylation caused by glutamate (p38): about 30% | Block of JNK phosphorylation caused by glutamate (JNK): about 30% | Effect on cell death [3]: inhibited cell death

C(=C\c1cc(/C=C/c2ccccc2)n(-c2ccccc2)n1)/c1ccccc1 [Compound 22-020]
Neuroprotective activity at 1 μM [4]: 0

COc1ccc(/C=C/c2cc(/C=C/c3ccc(OC)cc3)n(-c3ccccc3)n2)cc1 [Compound 22-022]
Neuroprotective activity at 1 μM [4]: 0

COc1cccc(/C=C/c2cc(/C=C/c3cccc(OC)c3)n(-c3ccccc3)n2)c1 [Compound 22-024]
Neuroprotective activity at 1 μM [4]: 0

COc1ccc(/C=C/c2cc(/C=C/c3ccc(OC)c(OC)c3)n(-c3ccccc3)n2)cc1OC [Compound 22-026]
Neuroprotective activity at 1 μM [4]: 0
